We go through two substances from US5023322A, “Analogs of growth hormone releasing factor (GRF) and a method for the preparation thereof” (MTA Kutatas-es Szervezetelemzo Intezete, priority 1988, dated 1991).

The test system of experiment [1] is growth hormone release. The experiment in a line: plasma GH level in anaesthetized rats after intravenous administration. It is filed as in vivo, Wistar Amsterdam rats. The settings on record: for Plasma GH level: i.v. As to the method:
(§1) The biological effects of the compounds according to the invention were tested under in vitro and in vivo conditions. In both instances the growth hormone release was measured as a function of the concentration of the compound administered. The amount of growth hormone released was detected by radioimmune assay with a reliability limit of 95%. The results obtained were compared to those obtained when administering native hpGRF or hGRF(1-29)--NH2, respectively.
(§2) Mature male Wistar Amsterdam rats, weighing 250-300 g, were anaesthetized intraperitoneally with 60 mg/kg of pentobarbital. The peptides to be tested were dissolved in 0.9% by weight aqueous saline solution, and were administered to the animals 20 minutes after anaesthesy as an intravenous (i.v.), intramuscular (i.m.) or subcutaneous (s.c.) injection. Blood samples were taken from the jugular vein of the animals prior to the administration of the active agent (-1 minute) and 5, 15 and 30 minutes after challenge. The amount of growth hormone released was measured by radioimmune assay.
Therefore, when the compounds were administered intravenously, the percentage increase in activity was calculated by relating the amount of growth hormone released upon administering a compound of the invention to the amount of growth hormone released upon administering hGRF(1-29)--NH2.

For experiment [2], the system named is growth hormone release. The experiment in a line: plasma GH level in anaesthetized rats after intramuscular administration. The settings on record: administered intramuscularly, in the doses tested. It is filed as in vivo, Wistar Amsterdam rats. As to the method:
as §1, §2
(§3) Therefore, in these tests the activity of the compounds according to the invention was characterized by the percentage increase in the plasma growth hormone level related to that originally present in the plasma (basal value).

In experiment [3] the test system is growth hormone release. The experiment can be described thus: plasma GH level in anaesthetized rats after subcutaneous administration. It counts as in vivo, Wistar Amsterdam rats. Particulars: administered subcutaneously, in the doses tested. As to the method: as §1, §2, §3
For experiment [4] the following is noted: literature; cited from earlier work.
The subject of another experiment is milk production. The settings on record: cattle; J. Dairy Science 70, 2511 (1987) and 71, 92 (1988); cited from earlier work.

No end group written: not given here.

“hGRF(1-29)--NH2 (YADAIFTNSYRKVLGQLSARKLLQDIMSR-NH2; UniProt P01286 32-60, looked up, fragment) [Standard, fragment of the native human peptide amide extending from the N-terminal through residue 29; applied as standard]”: in the experiment on growth hormone release [1] (administered intravenously), the “release of growth hormone (in words)” value is “stimulated the release of growth hormone”. Moreover, the “Plasma GH level” value is 311.00 ng/mL in the experiment on growth hormone release [1] (0.8 μg/kg, +5 min); 93.60 ng/mL with growth hormone release [1] (0.8 μg/kg, +15 min); 48.73 ng/mL in the experiment with growth hormone release [1] (0.8 μg/kg, +30 min); 80.46 ng/mL in the experiment with growth hormone release [1] (0.8 μg/kg, -1 min (before administration)); 1061.11 ng/mL with growth hormone release [1] (2 μg/kg, +5 min); 393.13 ng/mL in the experiment with growth hormone release [1] (2 μg/kg, +15 min). In addition, the “Plasma GH level” value was 109.22 ng/mL in the experiment with growth hormone release [1] (2 μg/kg, +30 min) and 125.22 ng/mL with growth hormone release [1] (2 μg/kg, -1 min (before administration)). In addition, the “activity on growth hormone release (in words)” value in the experiment with growth hormone release [2] and in the experiment with growth hormone release [3] was “practically inactive” each time. Further, the “biological activity compared to the native hGRF(1-44)--NH2 (in words)” value in experiment [4] is “favourable activity”. Moreover, in the experiment with milk production, the “milk production of cattles, quality and quantity (in words)” value is on record as “influenced favourably”.

On to “human GRF(1-44)--NH2 (YADAIFTNSYRKVLGQLSARKLLQDIMSRQQGESNQERGARARL-NH2; UniProt P01286 32-75, looked up) [native human GRF, a peptide amide of 44 residues]”, for which the “milk production of cattles, quality and quantity (in words)” value in the experiment on milk production is “influenced favourably”.
